Results on six molecules are retold here after US20110040086A1, “Novel Beta-Lactam Antibiotics, Methods for Their Production, and Their Use” (DRITTE PATENTPORTFOLIO BETEILIGUNGSGESELLSCHAFT MB, priority 2007, published 2011).

Experiment [1] concerns B. subtilis AWD 166. The experiment can be described thus: agar diffusion test (antimicrobial effect). The experiment is classed as cell-based, Bacillus subtilis. The essentials:
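Inhibition zone diameters (mm) read after 20 h incubation at 37 °C. Discs carried 10 μg, 50 μg or 100 μg of test substance, dissolved in methanol or distilled water, on agar inoculated with B. subtilis AWD 166 for dense but separate colonies.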
In general terms: A growth-free zone around the sample is the usual read-out of agar diffusion tests.

Experiment [2] has as its system Enterococcus faecalis 769. The experiment can be described thus: agar diffusion test (Test System II, multi-resistant germs). The experiment is classed as cell-based. The arrangement: key: r = resistant (no detectable zone of inhibition). In short, it runs like this: (§1)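 Compounds, dissolved in methanol or distilled water, were loaded onto paper discs at 10, 50 and 100 μg and placed three per plate on Müller-Hinton agar II spread with a McFarland 0.5 saline suspension. After 18-20 h at 37 °C, inhibition zone diameters were measured.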

For experiment [3], the system named is S. epidermidis 1068. The experiment is described as above. It counts as cell-based, Staphylococcus epidermidis. Also on record: key: r = resistant (no detectable zone of inhibition). The essentials:
as §1

The subject of experiment [4] is S. epidermidis 847. The experiment is described as above. It counts as cell-based, Staphylococcus epidermidis. The arrangement: key: r = resistant (no detectable zone of inhibition). In short, it runs like this:
as §1

For experiment [5], the system named is S. epidermidis 563. The description is as above. The experiment is classed as cell-based, Staphylococcus epidermidis. Also on record: key: r = resistant (no detectable zone of inhibition). The essentials:
as §1

Experiment [6] relates to S. epidermidis 1071. The description is as above. It counts as cell-based, Staphylococcus epidermidis. The arrangement: key: r = resistant (no detectable zone of inhibition). The essentials:
as §1

Experiment [7] concerns E. faecalis 945. The experiment is described as above. It counts as cell-based, Enterococcus faecalis. The arrangement: key: r = resistant (no detectable zone of inhibition). The essentials: as §1

As for “3-chlorine-7-[2-(2-methoxycarbonyl-3,6-dioxocyclohexa-1,4-dienylamino)-2-phenyl-acetylamino]-8-oxo-1-thia-5-azabicyclo[4.2.0]oct-3-en-4-carboxylic acid [1k]”, the “Diameter of zone of inhibition” value is given as 30 mm in experiment [1] (Quantity n 0.029); 36 mm in experiment [1] (Quantity n 0.14); 38 mm in experiment [1] (Quantity n 0.29); “r” in experiment [2] (Quantity n 0.029); 8 mm in experiment [2] (Quantity n 0.14); 14 mm in experiment [2] (Quantity n 0.29). Further, the “Diameter of zone of inhibition” value turned out to be 14 mm in experiment [3] (Quantity n 0.029); 22 mm in experiment [3] (Quantity n 0.14); 24 mm in experiment [3] (Quantity n 0.29); 8 mm in experiment [4] (Quantity n [mol] 0.029); 24 mm in experiment [4] (Quantity n [mol] 0.14); 28 mm in experiment [4] (Quantity n [mol] 0.29). Moreover, the “Diameter of zone of inhibition” value in experiment [5] (Quantity n 0.029) turned out to be 18 mm; in experiment [5] (Quantity n 0.14) it was 28 mm; in experiment [5] (Quantity n 0.29), 30 mm; in experiment [6] (Quantity n 0.029), 18 mm; in experiment [6] (Quantity n 0.14), 24 mm; in experiment [6] (Quantity n 0.29), 28 mm. In addition, the “Diameter of zone of inhibition” value in experiment [7] (Quantity n 0.029), in experiment [7] (Quantity n 0.14) and in experiment [7] (Quantity n 0.29) was “r” each time.
Turning to “7-[2-(2-carbamoyl-3,6-dioxocyclohexa-1,4-dienylamino)-2-(4-hydroxyphenyl)-acetylamino]-desacetoxycephalosporanic acid [1b]”, the “Diameter of zone of inhibition” value in experiment [1] (Quantity n 0.019) is on record as 22 mm; in experiment [1] (Quantity n 0.1), 30 mm; in experiment [1] (Quantity n 0.19), 32 mm; in experiment [2] (Quantity n 0.019), “r”; in experiment [2] (Quantity n 0.1), “r”; in experiment [2] (Quantity n 0.19), “r”. Also, the “Diameter of zone of inhibition” value is given as “r” in experiment [3] (Quantity n 0.019); 16 mm in experiment [3] (Quantity n 0.1); 20 mm in experiment [3] (Quantity n 0.19); “r” in experiment [4] (Quantity n [mol] 0.019); 10 mm in experiment [4] (Quantity n [mol] 0.1); 12 mm in experiment [4] (Quantity n [mol] 0.19). In addition, the “Diameter of zone of inhibition” value in experiment [5] (Quantity n 0.019) was “r”; in experiment [5] (Quantity n 0.1) it was 14 mm; in experiment [5] (Quantity n 0.19), 20 mm; in experiment [6] (Quantity n 0.019) it was “r”; in experiment [6] (Quantity n 0.1) it was 18 mm; in experiment [6] (Quantity n 0.19), 22 mm. In addition, the “Diameter of zone of inhibition” value in experiment [7] (Quantity n 0.019), in experiment [7] (Quantity n 0.1) and in experiment [7] (Quantity n 0.19) was “r” throughout.
Turning to “7-[2-(2-ethoxycarbonyl-3,6-dioxocyclohexa-1,4-dienylamino)-2-(4-hydroxyphenyl)-acetylamino]-desacetoxycephalosporanic acid [1d]”, the “Diameter of zone of inhibition” value in experiment [1] (Quantity n 0.029) was 22 mm; in experiment [1] (Quantity n 0.14), 30 mm; in experiment [1] (Quantity n 0.29) it was 34 mm; in experiment [2] (Quantity n 0.029), “r”; in experiment [2] (Quantity n 0.14), “r”; in experiment [2] (Quantity n 0.29) it was “r”. For the same molecule, the “Diameter of zone of inhibition” value is “r” in experiment [3] (Quantity n 0.029); 12 mm in experiment [3] (Quantity n 0.14); 14 mm in experiment [3] (Quantity n 0.29); “r” in experiment [4] (Quantity n [mol] 0.029); 10 mm in experiment [4] (Quantity n [mol] 0.14); 14 mm in experiment [4] (Quantity n [mol] 0.29). Moreover, the “Diameter of zone of inhibition” value in experiment [5] (Quantity n 0.029) is recorded as “r”; in experiment [5] (Quantity n 0.14), 12 mm; in experiment [5] (Quantity n 0.29), 18 mm; in experiment [6] (Quantity n 0.029) it was “r”; in experiment [6] (Quantity n 0.14) it was 14 mm; in experiment [6] (Quantity n 0.29), 18 mm. The “Diameter of zone of inhibition” value in experiment [7] (Quantity n 0.029), in experiment [7] (Quantity n 0.14) and in experiment [7] (Quantity n 0.29) was “r” each time.
Take “7-{2-2-(2-hydroxyethylcarbamoyl)-3,6-dioxyocyclohexa-1,4-dienylamino]-2-(4-hydroxyphenyl)-acetylamino}-desacetoxycephalosporanic acid [1a]”: the “Diameter of zone of inhibition” value in experiment [1] (Quantity n 0.019) is recorded as 24 mm; in experiment [1] (Quantity n 0.1), 30 mm; in experiment [1] (Quantity n 0.19) it was 32 mm; in experiment [2] (Quantity n 0.019), “r”; in experiment [2] (Quantity n 0.1) it was “r”; in experiment [2] (Quantity n 0.19) it was “r”. Moreover, the “Diameter of zone of inhibition” value is reported as “r” in experiment [3] (Quantity n 0.019); 10 mm in experiment [3] (Quantity n 0.1); 16 mm in experiment [3] (Quantity n 0.19); “r” in experiment [4] (Quantity n [mol] 0.019); 16 mm in experiment [4] (Quantity n [mol] 0.1); 20 mm in experiment [4] (Quantity n [mol] 0.19). Besides, the “Diameter of zone of inhibition” value in experiment [5] (Quantity n 0.019) is “r”; in experiment [5] (Quantity n 0.1), 10 mm; in experiment [5] (Quantity n 0.19), 16 mm; in experiment [6] (Quantity n 0.019), “r”; in experiment [6] (Quantity n 0.1), 18 mm; in experiment [6] (Quantity n 0.19) it was 20 mm. The “Diameter of zone of inhibition” value in experiment [7] (Quantity n 0.019), in experiment [7] (Quantity n 0.1) and in experiment [7] (Quantity n 0.19) was “r” in each case.
For “7-{2-[2-(2-hydroxyethylcarbamoyl)-3,6-dioxocyclohexa-1,4-dienylamino]-2-phenyl-acetylamino}-desacetoxycephalosporanic acid [1e]”, the “Diameter of zone of inhibition” value in experiment [1] (Quantity n 0.029) is 22 mm; in experiment [1] (Quantity n 0.14), 30 mm; in experiment [1] (Quantity n 0.29), 32 mm; in experiment [2] (Quantity n 0.029) it was “r”; in experiment [2] (Quantity n 0.14), “r”; in experiment [2] (Quantity n 0.29), “r”. The “Diameter of zone of inhibition” value in experiment [3] (Quantity n 0.029) is listed as “r”; in experiment [3] (Quantity n 0.14), 14 mm; in experiment [3] (Quantity n 0.29), 16 mm; in experiment [4] (Quantity n [mol] 0.029), “r”; in experiment [4] (Quantity n [mol] 0.14), 16 mm; in experiment [4] (Quantity n [mol] 0.29), 20 mm. For the same molecule, the “Diameter of zone of inhibition” value in experiment [5] (Quantity n 0.029) is on record as “r”; in experiment [5] (Quantity n 0.14), 18 mm; in experiment [5] (Quantity n 0.29) it was 24 mm; in experiment [6] (Quantity n 0.029) it was 10 mm; in experiment [6] (Quantity n 0.14), 18 mm; in experiment [6] (Quantity n 0.29), 20 mm. The “Diameter of zone of inhibition” value in experiment [7] (Quantity n 0.029), in experiment [7] (Quantity n 0.14) and in experiment [7] (Quantity n 0.29) was “r” throughout.
Regarding `CC1=C(C(=O)O)N2C(=O)C(NC(=O)C(NC3=C(C(N)=O)C(=O)C=CC3=O)c3ccccc3)C2SC1` (stereo not drawn) [1f, 7-[2-(2-carbamoyl-3,6-dioxocyclohexa-1,4-dienylamino)-2-phenyl-acetylamino]-desacetoxycephalosporanic acid], the “Diameter of zone of inhibition” value is reported as 24 mm in experiment [1] (Quantity n 0.02); 30 mm in experiment [1] (Quantity n 0.1); 32 mm in experiment [1] (Quantity n 0.2); “r” in experiment [2] (Quantity n 0.02); “r” in experiment [2] (Quantity n 0.1); “r” in experiment [2] (Quantity n 0.2). Moreover, the “Diameter of zone of inhibition” value in experiment [3] (Quantity n 0.02) is recorded as “r”; in experiment [3] (Quantity n 0.1), 12 mm; in experiment [3] (Quantity n 0.2), 16 mm; in experiment [4] (Quantity n [mol] 0.02), “r”; in experiment [4] (Quantity n [mol] 0.1), 16 mm; in experiment [4] (Quantity n [mol] 0.2) it was 20 mm. In addition, the “Diameter of zone of inhibition” value in experiment [5] (Quantity n 0.02) was “r”; in experiment [5] (Quantity n 0.1) it was 18 mm; in experiment [5] (Quantity n 0.2), 24 mm; in experiment [6] (Quantity n 0.02) it was 8 mm; in experiment [6] (Quantity n 0.1), 16 mm; in experiment [6] (Quantity n 0.2), 18 mm. Further, the “Diameter of zone of inhibition” value in experiment [7] (Quantity n 0.02), in experiment [7] (Quantity n 0.1) and in experiment [7] (Quantity n 0.2) was “r” each time.
